# Molecular target: T1, Activated human p38α (Homo sapiens, UniProt Q16539)
# T1 construct: purchased Upstate Biotechnology Inc. 14-251
# Test: p38MAP kinase inhibition test
# Assay type: biochemical
# Conditions: at a concentration of 1 μmol/L; substrate myelin basic protein, ATP 20 μmol/L, [γ-32P]ATP; read-out: enzyme inhibitory activity
# Experimental: p38MAP Kinase Inhibition Test
# Activated human p38α was purchased from Upstate Biotechnology Inc. (Catalog No. 14-251). P38MAP kinase inhibitory activity was measured by the procedure described below with reference to the method by Whitmarsh A. J. and Davis R. J. [Methods in Enzymology (Method. Enzymol.), vol. 332, p. 319-336 (2001)]. As the substrate to be phosphorylated, a myelin basic protein (Catalog No. 133-13493, Wako Pure Chemical Industries, Ltd.) (20 μg/assay) was used. The reaction was carried out in a solution containing 3-[N-Morpholino]propanesulfonic acid (MOPS) (20 mmol/L, pH 7.2), β-glycerophosphoric acid (Sigma Corp.) (25 mmol/L), ethylenebis(oxyethylenenitrilo)tetraacetic acid (EGTA) (1 mmol/L), […] (Sigma-Aldrich Corp.) (1 mmol/L), dithiothreitol (DTT, Wako Pure Chemical Industries, Ltd.) (1 mmol/L), adenosine 5′-triphosphate (ATP, Sigma Corp.) (20 μmol/L), and MgCl2 (18.75 mmol/L) (total 40 μL/assay). The reaction was started by adding human p38α and [γ-^32P]ATP (1 μCi/assay), and incubation was performed at 30° C. for 15 minutes. The reaction was terminated by adding 4.5% v/v phosphoric acid (10 μL/well). Then, 45 μL of the reaction mixture was adsorbed onto phosphocellulose paper (p81 paper, Code No. 3698023, Whatman International, Maidstone, UK). The phosphocellulose paper was washed with 0.75% v/v phosphoric acid. Then, the radioactivity of the phosphorylated myelin basic protein ([^32P]) remaining on the phosphocellulose paper was measured with a scintillation counter (TRI-CARB2700TR, PerkinElmer, Boston, Mass., USA) using program No. 27 (data mode: cpm, measurement time: 1 min, Background substract: none, energy range measured: LL 0.0-UL 2000) or a scintillation counter (LS6500, BeckmanCoulter, Fullerton, Calif., USA) using program No. 17 (data mode: cpm, measurement time: 1 min, Background substract: none, energy range measured: high). The test compound was dissolved in DMSO before addition.
# T1 sequence (Q16539 whole entry): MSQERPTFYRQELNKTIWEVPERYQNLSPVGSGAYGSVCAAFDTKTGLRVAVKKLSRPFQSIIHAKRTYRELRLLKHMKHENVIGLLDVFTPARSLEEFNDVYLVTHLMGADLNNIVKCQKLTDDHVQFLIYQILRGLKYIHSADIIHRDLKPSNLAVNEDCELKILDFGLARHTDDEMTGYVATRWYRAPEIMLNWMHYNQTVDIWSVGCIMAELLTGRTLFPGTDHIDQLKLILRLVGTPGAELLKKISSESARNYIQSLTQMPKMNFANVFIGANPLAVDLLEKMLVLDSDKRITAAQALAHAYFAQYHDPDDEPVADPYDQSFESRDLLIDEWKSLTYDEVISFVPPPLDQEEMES
row,inhibition at 1 µM [%],SMILES
1,≥ 50,"COc1cc2nc(NC3CCN(S(C)(=O)=O)CC3)ncc2cc1-c1ccccc1NC(C)=O [Compound 239, 6-(2-Acetylaminophenyl)-7-methoxy-2-[1-(methylsulfonyl)piperidin-4-ylamino]quinazoline]"
2,≥ 50,"CC(C)Nc1ncc2cc(-c3ccccc3Cl)c(OCC(C)(C)O)cc2n1 [Compound 34, 6-(2-Chlorophenyl)-7-(2-hydroxy-2-methylpropyloxy)-2-isopropylaminoquinazoline]"
3,≥ 50,"COc1cc2nc(NC3CCN(S(=O)(=O)C(F)(F)F)CC3)ncc2cc1-c1ccccc1Cl [Compound 13, 6-(2-Chlorophenyl)-7-methoxy-2-[1-(trifluoromethylsulfonyl)piperidin-4-ylamino]quinazoline]"
4,≥ 50,"CC(=O)c1c(O)c(-c2ccccc2Cl)cc2cnc(NC(C)C)nc12 [Compound 78, 8-Acetyl-6-(2-chlorophenyl)-7-hydroxy-2-(isopropylamino)quinazoline]"
5,≥ 50,"COc1cc2nc(N[C@H]3CC[C@H](O)CC3)ncc2cc1-c1ccccc1Cl [Compound 10, 6-(2-Chlorophenyl)-2-(trans-4-hydroxycyclohexylamino)-7-methoxyquinazoline]"
6,≥ 50,"COc1c(-c2ccccc2Cl)cc2cnc(NC(C)C)nc2c1Br [Compound 60, 8-Bromo-6-(2-chlorophenyl)-2-isopropylamino-7-methoxyquinazoline]"
7,≥ 50,"CC(=O)OCCOc1cc2nc(NC(C)C)ncc2cc1-c1ccccc1Cl [Compound 22, 7-(2-Acetyloxyethyloxy)-6-(2-chlorophenyl)-2-isopropylaminoquinazoline]"
8,≥ 50,"COc1cc2nc(NC(C)C)ncc2cc1-c1ccccc1Cl [Compound 4, 6-(2-Chlorophenyl)-2-isopropylamino-7-methoxyquinazoline]"
9,≥ 50,"CC[C@H](C)Nc1ncc2cc(-c3cc(NC(=O)c4ccc[nH]4)ccc3CO)ccc2n1 [Compound 273, (S)-2-(sec-Butylamino)-6-{2-hydroxymethyl-5-[(1H-pyrrol-2-yl)carbonylamino]phenyl}quinazoline]"
10,≥ 50,"COc1cc2nc(NC(C)C)ncc2cc1-c1cccc(C)c1 [Compound 203, 2-Isopropylamino-7-methoxy-6-(3-methylphenyl)quinazoline]"
11,≥ 50,"CC(C)Nc1ncc2cc(-c3cccc(N)c3)c(O)cc2n1 [Compound 285, 6-(3-Aminophenyl)-7-hydroxy-2-(isopropylamino)quinazoline]"
12,≥ 50,"CC(C)Nc1ncc2cc(-c3ccccc3Cl)c(OCC#N)cc2n1 [Compound 21, 6-(2-Chlorophenyl)-7-cyanomethyloxy-2-isopropylaminoquinazoline]"
13,≥ 50,"Cc1ccc(NC(=O)C2CC2)cc1-c1cc2cnc(NC(C)C)nc2cc1O [Compound 295, 6-(5-Cyclopropylcarbonylamino-2-methylphenyl)-7-hydroxy-2-(isopropylamino)quinazoline]"
14,≥ 50,"COc1cc2nc(NC(C)C)ncc2cc1-c1cccc(C=O)c1 [Compound 197, 6-(3-Formylphenyl)-2-isopropylamino-7-methoxyquinazoline]"
15,≥ 50,"CCS(=O)(=O)N1CCC(Nc2ncc3cc(-c4ccccc4Cl)c(OC)cc3n2)CC1 [Compound 142, 6-(2-Chlorophenyl)-2-[1-(ethylsulfonyl)piperidin-4-ylamino]-7-methoxyquinazoline]"
16,≥ 50,"Cc1ccc(NC(=O)C2CCC2)cc1-c1ccc2nc(NC(C)C)ncc2c1 [Compound 265, 6-(5-Cyclobutylcarbonylamino-2-methylphenyl)-2-(isopropylamino)quinazoline]"
17,≥ 50,"COc1cc2nc(NC(C)C)ncc2cc1-c1ccccc1C=O [Compound 57, 6-(2-Formylphenyl)-2-isopropylamino-7-methoxyquinazoline]"
18,≥ 50,"Cc1ccccc1-c1cc2cnc(NC(C)C)nc2cc1O [Compound 245, 7-Hydroxy-2-isopropylamino-6-(2-methylphenyl)quinazoline]"
19,≥ 50,"COc1cc2nc(NCC(C)C)ncc2cc1-c1ccccc1Cl [Compound 151, 6-(2-Chlorophenyl)-2-isobutylamino-7-methoxyquinazoline]"

row,inhibition at 1 µM [%],SMILES
1,≥ 50,"COc1cc2nc(NC(C)C)ncc2cc1C(=O)c1cccc(Cl)c1 [Compound 117, 6-(3-Chlorobenzoyl)-2-isopropylamino-7-methoxyquinazoline]"
2,≥ 50,"CC(C)Nc1ncc2cc(-c3ccc(F)cc3F)c(O)c(-c3ccc(F)cc3)c2n1 [Compound 84, 6-(2,4-Difluorophenyl)-8-(4-fluorophenyl)-2-isopropylamino-7-hydroxyquinazoline]"
3,≥ 50,"Cc1ccc(NC(=O)c2ccc[n+]([O-])c2)cc1-c1ccc2nc(NC(C)C)ncc2c1 [Compound 263, 2-Isopropylamino-6-{2-methyl-5-[(pyridine-1-oxide-3-yl)carbonylamino]phenyl}quinazoline]"
4,≥ 50,"C=Cc1c(OC)c(-c2ccccc2Cl)cc2cnc(NC(C)C)nc12 [Compound 76, 6-(2-Chlorophenyl)-2-isopropylamino-7-methoxy-8-vinylquinazoline]"
5,≥ 50,"CC[C@H](C)Nc1ncc2cc(C(=O)c3cccc(C)c3)c(O)cc2n1 [Compound 135, (S)-2-(sec-Butylamino)-7-hydroxy-6-(3-methylbenzoyl)quinazoline]"
6,≥ 50,"CCCOC(=O)c1c(O)c(-c2ccccc2Cl)cc2cnc(NC(C)C)nc12 [Compound 63, 6-(2-Chlorophenyl)-7-hydroxy-2-isopropylamino-8-(propoxycarbonyl)quinazoline]"
7,≥ 50,"COc1cc2nc(NC(C)C)ncc2cc1-c1ccccc1C#N [Compound 183, 6-(2-Cyanophenyl)-2-isopropylamino-7-methoxyquinazoline]"
8,≥ 50,"CC(=O)Nc1cccc(-c2cc3cnc(NC(C)C)nc3cc2C)c1 [Compound 277, 6-[3-(Acetylamino)phenyl]-2-isopropylamino-7-methylquinazoline]"
9,≥ 50,"CC(C)Nc1ncc2cc(-c3ccccc3Cl)c(-c3ccc(C(=O)O)cc3)cc2n1 [Compound 41, 7-(4-Carboxyphenyl)-6-(2-chlorophenyl)-2-isopropylaminoquinazoline]"
10,≥ 50,"CC[C@H](C)Nc1ncc2cc(-c3ccccc3Cl)c(OC)cc2n1 [Compound 155, (S)-2-(sec-Butylamino)-6-(2-chlorophenyl)-7-methoxyquinazoline]"
11,≥ 50,"COc1cc2nc(NC(C)C)ncc2cc1-c1ccccc1F [Compound 190, 6-(2-Fluorophenyl)-2-isopropylamino-7-methoxyquinazoline]"
12,≥ 50,"CC(C)Nc1ncc2cc(-c3cc(NC(=O)c4ccc[nH]4)ccc3O)ccc2n1 [Compound 267, 6-{2-Hydroxy-5-[(1H-pyrrol-2-yl)carbonylamino]phenyl}-2-(isopropylamino)quinazoline]"
13,≥ 50,"Cc1cc2nc(NC(C)C)ncc2cc1-c1cccc(NC(=O)c2ccc[nH]2)c1 [Compound 278, 2-Isopropylamino-7-methyl-6-{3-[(1H-pyrrol-2-yl)carbonylamino]phenyl}quinazoline]"
14,≥ 50,"COc1cc2nc(NC(C)C)ncc2cc1-c1cccc(OC)c1F [Compound 207, 6-(2-Fluoro-3-methoxyphenyl)-2-isopropylamino-7-methoxyquinazoline]"
15,≥ 50,"Cc1ccc(-n2nc(C(C)(C)C)cc2C(=O)Nc2cccc(-c3cc4cnc(NC(C)C)nc4cc3O)c2)cc1 [Compound 359, 6-{3-[5-tert-Butyl-2-(4-methylphenyl)-2H-pyrazol-3-ylcarbonylamino]phenyl}-7-hydroxy-2-(isopropylamino)quinazoline]"
16,≥ 50,"Cc1cccc(C)c1Nc1ncc2cc(C(=O)c3ccccc3)c(O)cc2n1 [Compound 140, 6-Benzoyl-2-(2,6-dimethylanilino)-7-hydroxyquinazoline]"
17,≥ 50,"CC(C)Nc1ncc2cc(-c3ccccc3Cl)c(O)c(-c3ccccc3Cl)c2n1 [Compound 98, 6,8-Di(2-chlorophenyl)-7-hydroxy-2-(isopropylamino)quinazoline]"
18,≥ 50,"CC(C)Nc1ncc2cc(-c3ccccc3Cl)c(OCCCO)cc2n1 [Compound 24, 6-(2-Chlorophenyl)-7-(3-hydroxypropyloxy)-2-isopropylaminoquinazoline]"
19,≥ 50,"COc1cc2nc(NC3CCOCC3)ncc2cc1-c1cccc(NC(C)=O)c1 [Compound 243, 6-(3-Acetylaminophenyl)-7-methoxy-2-(4-tetrahydropyranylamino)quinazoline]"

# — patent publication US7906522B2, “2-aminoquinazoline derivatives” (Kyowa Hakko Kirin Co., Ltd, priority 2005, dated 2011)
